Source: patent publication US4091213A, “7-Cyclizedamino-3-heterothiomethyl cephalosporin derivatives” (Bristol-Myers Company, priority 1977, dated 1978)

What was measured:
[1] = Paper chromatograms of rat urine following IM administration, antibiotically active metabolites; type: in vivo; conditions: urine 0-2 and 2-4 hours; for antibiotically active metabolites in urine (spots on paper chromatogram): system No. 9 (butyl acetate:n-butanol:glacial acetic acid:H2O)
Experimental: Paper chromatograms were run on rat urine collected between 0 and 2 and between 2 and 4 hours following IM administration of BL-S1057, 1058 and 643, for the detection of antibiotically active metabolites using descending chromatography with system No. 9 (butyl acetate:n-butanol:glacial acetic acid:H2 O = 80:15:40:24).

[2] = Paper strip chromatography; type: physicochemical; conditions: 37° C.; 0 and 1 hour; 0.2 mg./ml.
[3] = Liquid chromatography, hydrolysis in buffer; type: physicochemical; conditions: pH 6 buffer; 1 mg./ml.; 0 hours
Experimental: f. Liquid chromatography = 100% hydrolyzed in pH 6.1 buffer within 1 hour at room temperature (concentration = 1 mg./ml.)
d. Liquid chromatography (1 mg./ml. in pH 6 buffer)

Row | SMILES | antibiotically active metabolites in urine (spots on paper chromatogram) [1] | Paper strip chromatography [2] | hydrolysis of the derivatives to the parent compound (BL-S643) [1] | % Hydrolyzed (liquid chromatography) [3] [%]
1 | Cc1nnc(SCC2=C(C(=O)O)N3C(=O)C(NC(=O)[C@H](N)c4ccc(O)cc4)C3SC2)s1 (some centres unmarked) [BL-S643, reference compound] | A single, identical spot was observed | – | – | –
2 | Cc1nnc(SCC2=C(C(=O)O)N3C(=O)C(N4C(=O)[C@@H](c5ccc(O)cc5)NC4c4ccco4)C3SC2)s1 (some centres unmarked) [BL-S1057] | A single, identical spot was observed | Primarily 1 zone at Rf of BL-S643 | complete hydrolysis | –
3 | Cc1nnc(SCC2=C(C(=O)O)N3C(=O)C(N4C(=O)[C@@H](c5ccc(O)cc5)NC4c4ccc(S(=O)(=O)O)o4)C3SC2)s1 (some centres unmarked) [BL-S1058] | A single, identical spot was observed | Primarily 1 zone at Rf of BL-S643 at 0 and 1 hour at 37 °C (concentration is 0.2 mg./ml.) There is evidence of a second zone | complete hydrolysis | 25.4
